{"source": "patent US20040247571A1", "about": "“Neural cells expressing tyrosine hydroxylase” (priority 2001, published 2004)", "data": [{"test_system": "Human neural progenitor cells expanded in EGF/bFGF/LIF (991013FBr)", "test": "Importance of the various factors for TH induction", "assay_type": "cell-based", "settings": "one factor omitted from the cocktail of Example 1, 3 days", "description": "(§1) Cultures of human neural progenitors established from human fetal forebrain expanded in N2 medium supplemented with EGF/bFGF/LIF or EGF/bFGF/CNTF as indicated were mechanically passaged and maintained in expansion medium for 5-7 days. The small spheres were then plated on glass coverslips coated with poly-L-lysine (PLL, 100 μg/ml) and laminin (50 μg/ml) at a cell density of 100.000 cells/cm^2 in N2 medium containing 1% FBS for “default differentiation” or in N2 medium supplemented with aFGF (100 ng/ml), BDNF (50 ng/ml), forskolin (25 μM), DA (10 μM), TPA (100 nM), dbcAMP (100 μM), GDNF (20 ng/ml), IGFI (100 ng/ml), IL-1α (200 pg/ml). N2 medium consists of DMEM:F12 (1:1) supplemented with N2 (insulin, transferrin, selenium, progesterone and putrescine), 0.6% glucose and 5 mM HEPES. After 3 days incubation, cells were fixed in 4% paraformaldehyde in PBS for 20 min at room temperature. The cells were washed three times with PBS, followed by overnight incubation with primary antibody (rabbit anti-TH, PelFreez 1:100 or Chemicon 1:800) diluted in PBS incubation buffer which contained 10% normal goat serum, 0.3% Triton X-100 (Sigma) and 1% BSA at 4° C. in a humidified chamber. The cells were washed with PBS, and incubated for 1 hr at room temperature in the dark with secondary antibody (anti-rabbit Cy3, (Chemicon 1:500) diluted in incubation buffer. After washing with PBS, nuclei were counterstained with DAPI or Hoechst 33342. Negative controls (omission of the primary antibody) were included in each experiment.\n(§2) To quantify the percentage of TH cells, cells were counted in at least three fields from three to six independent coverslips randomly chosen using a 20× objective. The number of TH-immunoreactive cells in each field was counted. The total cell number was obtained by counting nuclei counterstained with DAPI or Hoechst 33342.\n(§3) Human neural progenitor cells expanded in EGF/bFGF/LIF (991013FBr) cells were seeded as small spheres (5 days after trituration to single cell suspension) on PLL/laminin coated 12 mm coverslips at a cell density of 100.000 cells/cm^2 in N2 medium containing different combinations of the factors described in Example 1. After incubation for 3 days, cells were fixed in 4% PFA and immunostained for TH as described in Example 1.", "values": [{"molecule": "NCCc1ccc(O)c(O)c1", "note": "[dopamine, reference compound]", "effect of omitting the factor from the cocktail on induction of TH positive cells": "did not affect induction of TH positive cells"}, {"molecule": "BDNF: Brain Derived Neurotrophic Factor", "effect of omitting the factor from the cocktail on induction of TH positive cells": "did not affect induction of TH positive cells"}, {"molecule": "IGF-I: Insulins (IGF-I, IGF-II, insulin)", "effect of omitting the factor from the cocktail on induction of TH positive cells": "did not affect induction of TH positive cells"}, {"molecule": "GDNF: Glial cell-line Derived Neurotrophic Factor (protein, UniProt P39905 78-211, looked up) Glial cell line-derived …: SPDKQMAVLPRRERNRQAAAANPENSRGKGRRGQRGKNRGCVLTAIHLNVTDLGLGYETKEELIFRYCSGSCDAAETTYDKILKNLSRNRRLVSDKVGQACCRPIAFDDDLSFLDDNLVYHILRKHSAKRCGCI", "effect of omitting the factor from the cocktail on induction of TH positive cells": "did not affect induction of TH positive cells"}, {"molecule": "IL-1α: Interleukin (protein, UniProt P01583 113-271, looked up) Interleukin-1 alpha: SAPFSFLSNVKYNFMRIIKYEFILNDALNQSIIRANDQYLTAAALHNLDEAVKFDMGAYKSSKDDAKITVILRISKTQLYVTAQDEDQPVLLKEMPEIPKTITGSETNLLFFWETHGTKNYFTSVAHPNLFIATKQDYWVCLAGGPPSITDFQILENQA", "effect of omitting the factor from the cocktail on induction of TH positive cells": "did not affect induction of TH positive cells"}]}, {"test_system": "Human neural progenitor cells expanded in EGF/bFGF/LIF (991013FBr)", "test": "Importance of the various factors for TH induction", "assay_type": "cell-based", "settings": "same concentration (100 ng/ml), 3 days", "description": "as §1, §2, §3", "values": [{"molecule": "FGF-2/bFGF: basic fibroblast growth factor", "effect of replacing FGF-1/aFGF in the cocktail on TH immunoreactive cells": "without any effect on numbers or morphology of TH immunoreactive cells"}]}]}
